Experiment [1] deals with EGFR, HER3 and downstream signaling pathways. Nature of the experiment: Western blot of EGFR, HER3 and downstream signaling in cells. The experiment is classed as cell-based. Here is the method:
HCC70 and MDA-MB-468 TNBC cell lines, characterized by elevated levels of EGFR and loss of PTEN expression, were treated with GDC-0068, GDC-0941, MEHD7945A, and the combinations of these inhibitors.
Cells were washed with ice-cold phosphate buffered saline (PBS) and scraped into ice-cold RIPA lysis buffer (Cell Signaling) supplemented with phosphatase inhibitor cocktails (Complete Mini, and PhosphoStop (Roche)). Lysates were cleared by centrifugation at 13,000 rpm for 10 minutes at 4° C., supernatants removed and assayed for protein concentration using the Pierce BCA Protein Assay Kit (Thermo Scientific). Thirty-five micrograms of total lysate was resolved on NuPAGE 4-12% Bis-Tris gels (Life Technologies) and electrophoretically transferred to Immobilon transfer membranes (Millipore). Membranes were blocked for 1 hour in 5% nonfat dry milk in TBS-Tween and then hybridized using the following primary antibodies in 5% bovine serum albumin (BSA) TBS-Tween: phospho-Akt (Ser473), phospho-Akt (Thr308), Akt, phospho-S6 (Ser(240/4), phospho-S6 (Ser235/6), S6, phospho-PRAS40 (Thr246), PRAS40, phospho-Erk (Thr202/Tyr204), Erk, phospho-EGFR (Tyr1068), EGFR, phospho-HER3 (Tyr1289), HER3 (1:500-1:1000, Cell Signaling). Beta-actin was used as a loading control (1:5000, Sigma), also in 5% BSA TBS-Tween. Mouse and rabbit horseradish peroxidase (HRP)-conjugated secondary antibodies (1:50,000, Amersham Biosciences) were diluted in 2% nonfat dry milk in TBS-Tween. Protein—antibody complexes were detected by chemiluminescence with SuperSignal West FemtoChemiluminescent Substrate (Thermo Scientific) and images were captured with a G-BOX camera system.

A further experiment deals with EGFR and HER3. Nature of the experiment: CEER analysis of active and total EGFR and HER3 in xenograft tumors. Type of experiment: in vivo, mice. Here is the method: The levels of EGFR and HER3 expression/activation in HCC70 tumors collected at the end of the experiments (day 39) was investigated. […] Frozen tissue was analyzed by Cooperative, Enhanced, Enzyme Immunoreactive (CEER), a platform that utilizes reverse-phase detection of nanogram quantities of protein.
The levels of pathway protein expression and their activation in xenografts were determined by CEER. (Kim et al., ASCO Annual Meeting abstract P2-06-13, (2010)) CEER utilizes the formation of unique immuno-complexes between capture antibodies printed on a nitrocellulose microarray surface, the target molecule in cell lysate reacted with the slide, and two independent detector-antibodies. One of the detector-antibody is conjugated to glucose oxidase, and the other is conjugated to horseradish peroxidase. Target detection (expressed as computational unit, CU) requires the presence of both detector-antibodies and the enzyme channeling event between glucose oxidase and horseradish peroxidase will not occur unless both antibodies are in close proximity.

Experiment [2] relates to patient-derived xenografts (PDX) of TNBC. Nature of the experiment: Patient-derived xenograft tumor growth. Type of experiment: in vivo, mice. The settings on record: MEHD7945A 10 mg/Kg twice weekly, GDC-0941 75 mg/Kg daily, GDC-0068 40 mg/kg daily. As for the experimental part:
The activity of the same treatments in patient-derived xenografts (PDX) of TNBC was then tested.
(§1) For patient-derived xenograft (PDX) studies, tumors were subcutaneously implanted in 6-week old female athymic nude mice. Upon xenograft growth, tumor tissue was reimplanted into recipient mice, which were randomized upon implant growth. For the collection of circulating tumor cells (CTCs), tumors were implanted into the mammary pad of athymic nude mice.
(§2) Once tumors reached an average volume of about 150-250 mm^3, mice were randomized into treatment arms, with n=7-11 tumors/group. GDC-0068 [40 mg/kg] or GDC-0941 [75 mg/kg] were dissolved in 0.5% methylcellulose and 0.2% Tween-80 (MCT) solution and administered once daily via oral gavage. […] Tumors were measured by digital caliper over the entire treatment period. Tumor volume was determined using the formula: (length×width^2)×(π/6). Tumor volumes are plotted as means±SEM.
For orientation: A xenograft is tissue or cells of one species grown in another, often human tumour cells in immunodeficient mice.

The test system of another experiment is HCC70 cells. Nature of the experiment: Heregulin- and EGF-induced proliferation. The experiment is classed as cell-based. As for the experimental part:
For proliferation, 5×10^5 cells were seeded in 96-well plates and treated with the indicated concentrations of GDC-0068, GDC-0941, and/or MEH[…]. After 5 days, cells were fixed and stained with Crystal Violet. Cell proliferation was also analyzed with CellTiter-Glo Luminescent Cell Viability Assay (Promega) as described by the manufacturer. For heregulin (HRG, Peprotech) and epidermal growth factor (EGF, Peprotech)-induced proliferation, 5×10^5 cells were treated with GDC-0068, GDC-0941, and/or MEH[…] in the presence of 4 ng/ml of ligands for 5 days and then stained with Crystal Violet.

Experiment [3] concerns MDA-MB-468, HCC70 and patient-derived xenograft. Nature of the experiment: In vivo activity in three different models of TNBC. On the set-up: species or system mice. As for the experimental part:
Several TNBC cell lines were treated with MEHD7945A, a dual-action antibody that targets both EGFR and HER3, AKT inhibitor GDC-0068, and pan-PI3K inhibitor GDC -0941. Cell viability was measured by CellTiter-Glo and Crystal Violet. Both cell line- and patient -derived xenograft models of TNBC were treated with MEHD7945A, GDC-0068, GDC-0941, or the combination of MEHD7945A with either GDC-0068 or GDC-0941. Tumor size and histology were examined. Protein expression was measured by Western blot, Mass Spectometry, CEER and immunohistochemistry.
To test the activity of these compounds in vivo, three different models of TNBC were used: two cell line (MDA-MB-468 and HCC70)-based and a patient-derived xenograft.
All mouse studies were conducted through institutional Animal Care and Use Committee (IACUC) approved animal protocols in accordance with institutional guidelines. Six-week-old female athymic nude mice were purchased from Charles River Laboratories and housed in air-filtered laminar flow cabinets with a 12-hour light cycle and food and water ad libitum.
(§3) For cell line-derived xenograft studies, mice were injected subcutaneously with 1×10^7 HCC70 or MDA-MB-468 suspended in 150 μL culture media/Matrigel (BD Biosciences) in a 4:1 ratio. One μmol/L of 17β-estradiol was supplemented in the mouse drinking water as described (Garcia-Garcia et al., Clinical cancer research: an official journal of the American Association for Cancer Research 18, 2603 (2012)).
as §1, §2

The test system of experiment [4] is MDA-MB-468- and HCC70-derived xenografts. Nature of the experiment: Cell line-derived xenograft tumor growth. As to conditions: MDA-MB-468 and HCC70 xenografts; p less than 0.01 combination vs monotherapy. The experiment is classed as in vivo, mice. Here is the method: To expand these findings in vivo, the efficacy of MEHD7945A was tested in combination with either the Akt or PI3K inhibitor in both MDA-MB-468- and HCC70-derived xenografts.
as §3, §2

Experiment [5] has as its system HCC70 and MDA-MB-468 cells. Nature of the experiment: Five days proliferation analysis (Crystal Violet / CellTiter-Glo). Type of experiment: cell-based. As to conditions: 5 days; MEHD7945A 10 nM, GDC-0068 and GDC-0941 1 uM. Here is the method:
Whether the combination of MEHD7945A with GDC-0068 or GDC-0941 would result in enhanced antiproliferative activity was tested in both HCC70 and MDA-MB-468 cells.
For proliferation, 5×10^5 cells were seeded in 96-well plates and treated with the indicated concentrations of GDC-0068, GDC-0941, and/or MEHD7945A. After 5 days, cells were fixed and stained with Crystal Violet. Cell proliferation was also analyzed with CellTiter-Glo Luminescent Cell Viability Assay (Promega) as described by the manufacturer. For heregulin (HRG, Peprotech) and epidermal growth factor (EGF, Peprotech)-induced proliferation, 5×10^5 cells were treated with GDC-0068, GDC-0941, and/or MEHD7945A in the presence of 4 ng/ml of ligands for 5 days and then stained with Crystal Violet.
Background: In ATP-based viability assays light output follows the ATP content of the culture.

In another experiment the test system is TNBC patients. Nature of the experiment: Neoadjuvant trial of panitumumab with standard chemotherapy (pCR, EGFR and HER3 IHC). Type of experiment: in vivo, human. As for the experimental part: Patient samples: Tumor tissue was fixed in 10%-buffered formalin for 48 h and further embedded in paraffin. Four-micron sections were deparaffinized in xylene and hydrated in graded alcohols. For EGFR detection, the antigen was retrieved by protease treatment (8 min at 37° C.) and the sections further incubated at 37° C. for 1 h with pre-diluted, ready-to-use mouse monoclonal anti-EGFR (clone 3C6, Ventana, Tucson, Ariz.). The antigen-antibody reaction was visualized by UltraView DAB reveal system in a Benchmark XT automated IHC stainer (all from Ventana). For HER3, the antigen retrieval was performed by heating the sections at 97° C. for 20 min in EnVision® Target Retrieval Solution High pH (Dako) in PT-Link apparatus (Dako). The tissues were then incubated at 37° C. for 2 h with mouse monoclonal anti-HER3 (clone DAK-H3-IC, Dako, Glostrup, Denmak) diluted at 1:50. […] For each patient the pre-treatment and the post-treatment tumor sample were run together. IHC staining was interpreted by an expert pathologist who was blind to patient information. Both EGFR and HER3 expressions were quantified using an arbitrary scale having 0, 0.5, 1, 1.5, 2, 2.5 and 3 as measures of increasing staining intensity. EGFR and HER3 histoscores were defined as a sum of products obtained by multiplying the staining intensity with the percentage of stained cells.
FFPE specimens for IHC analyses of EGFR and HER3 expression were obtained from the institutions participating in two French multicenter pilot phase II neoadjuvant trials which tested the efficacy of an anti-EGFR antibody combined to chemotherapy in TNBC stage II-IIIA pts. One trial regimen consisted of 8 cycles, administered each 3 weeks. First 4 cycles contained 9 mg/kg of panitumumab combined with 500 mg/m2 of each 5-fluorouracil and cyclophosphamide plus 100 mg/m2 of epirubicin. Last 4 cycles had panitumumab with 100 mg/m2 docetaxel instead of 3 cytotoxics previously mentioned. […] All patients underwent surgery at completion of treatment. Pathologic complete response (pCR) was the primary endpoint with clinical response and toxicity as secondary endpoints. […] Tumor tissue samples were systematically collected before and at the end of the neoadjuvant treatment and collection was centralized at the Jean Perrin Comprehensive Cancer Center where molecular and pathological analyses were performed. pCR was evaluated using Chevallier's (Chevallier et al., American Journal of Clinical Oncology 16, 223 (1993)) and Sataloff's (Sataloff et al., Journal of the American College of Surgeons 180, 297 (1995)) classifications.

[6] abbreviates: cells stimulated with either EGF or Heregulin.
Where [7] appears, read: pre-treatment EGFR histoscore more than 70.
Setting [8] is: pre-treatment EGFR histoscore ≦70.

“MEHD7945A: dual-action antibody with two identical antigen binding domains, each of which specifically binds to both HER3 and EGFR”: the “inhibition of the PI3K and ERK downstream pathways” value in experiment [1] (addition of MEHD7945A 10 nM to GDC-0068 or GDC-0941, both cell lines) is “enhanced the inhibition of the PI3K and ERK downstream pathways”. In experiment [1] (addition of MEHD7945A 10 nM, both cell lines, 24 hours), the “induction of EGFR and HER3 phosphorylation by GDC-0068 or GDC-0941” value was “prevented the induction of EGFR and HER3 phosphorylation”. The HER3/EGFR receptor phosphorylation entry in experiment [1] (setting [6]) is recorded as “prevented HER3/EGFR receptor phosphorylation”. Moreover, in the experiment on EGFR and HER3 (HCC70 xenografts), the “EGFR phosphorylation (CEER)” value is on record as “blocked EGFR phosphorylation” and the “HER3 activation (CEER)” value is given as “decreased HER3 activation”. Besides, in the experiment on EGFR and HER3 (TNBC PDX, tumors harvested 2 h after the last drug administration), the “active and total levels of HER3 and EGFR (CEER)” value was “prevented receptor phosphorylation”. The tumor growth entry in experiment [2] is “delayed tumor growth”. Moreover, the “effect on antiproliferative activity mediated by PI3K/Akt inhibition” value in the experiment on HCC70 cells (HCC70 cells stimulated with EGF, antibodies 10 nM, GDC-0068 and GDC-0941 1 uM, 5 days) is “enhanced the antiproliferative activity mediated by PI3K/Akt inhibition”. Moreover, the “cooperation with the antiproliferative activity of GDC-0068 and GDC-0941” value in the experiment with HCC70 cells (HCC70 cells stimulated with heregulin (HRG), antibodies 10 nM, 5 days) is listed as “superior to cetuximab”. Besides, the “effect on antiproliferative activity of the PI3K inhibitors” value with HCC70 cells (setting [6]) is “improved the antiproliferative activity of the PI3K inhibitors”. Besides, in experiment [3] (analysis of treated tumors), the “EGFR and HER3 phosphorylation consequent to PI3K inhibition in treated tumors” value is “effectively prevented EGFR and HER3 phosphorylation”. In addition, in experiment [3] (three TNBC models, MEHD7945A 10 mg/kg i.p. twice weekly, GDC-0068 40 mg/kg, GDC-0941 75 mg/kg oral once daily), the tumor growth result is on record as “variable delay in tumor growth”. Further, the tumor growth inhibition result in experiment [4] is recorded as “responded only modestly”. For the same substance, the “inhibition of cell proliferation/viability” value in experiment [5] is “varying sensitivity”.
“panitumumab: anti-EGFR antibody, epidermal growth factor receptor antagonist”: the “residual disease at the time of surgery, rate” value with TNBC patients (40 patients) was 52.5%. The “pathological complete response (pCR) rate” value with TNBC patients (40 patients, panitumumab with 4 standard cytotoxic agents, 24 weeks) was found to be 47.5%. Further, the “increase in pCR compared to TNBC patients treated only with cytotoxics-based neoadjuvant chemotherapy” value in the experiment with TNBC patients (comparison with Liedtke et al. 2008) is given as “two-fold increase”. Further, in the experiment on TNBC patients (of 40 patients), the “patients with residual disease at the time of surgery” value is 21. In addition, in the experiment on TNBC patients (of 40 patients, panitumumab with 4 standard cytotoxic agents, 24 weeks), the “patients achieving pathological complete response (pCR)” value came to 19. Also, in the experiment with TNBC patients (p equals 0.010), the “non-pCR patients with higher HER3 expression in residual lesions versus pre-treatment (IHC)” value is recorded as 7 out of 13. The “non-pCR patients with decreased EGFR levels in residual tumors versus baseline (IHC)” value in the experiment with TNBC patients (p equals 0.07) was “nine out of 21”. Besides, in the experiment on TNBC patients (setting [7]), the pCR rate is given as 58% and the “patients with pCR” value is listed as 15 out of 26. Besides, in the experiment with TNBC patients (setting [8]), the “complete tumor regression rate” value is 28% and the “patients with complete tumor regression” value is 4 out of 14.

For the origin of these results see patent US9566334B2, “Combinations of a PI3K/AKT inhibitor compound with an HER3/EGFR inhibitor compound and use thereof in the treatment of a hyperproliferative disorder” (THE GENERAL HOSPITAL CORPORATION, priority 2012, dated 2017).
